From patent publication US20240350589A1, “IL-2/IL-15RBETAGAMMA AGONIST COMBINATION WITH ANTIBODY-DRUG CONJUGATES FOR TREATING CANCER” (Cytune Pharma, priority 2021, published 2024)
Entries after “also recorded” stand apart in the source; their conditions may differ.

How the values were obtained:
AGS tumor cell line [1] = experiment: In vitro killing of AGS tumor cells, AnnexinV/DAPI flow cytometry; format: cell-based, human; settings: doxorubicin 1.2 μM or cisplatin 100 μM 48 h; Kadcyla 7 μg/ml 72 h
AGS tumor cell line [2] = experiment: Cell surface exposure of ICD markers CRT, HSP70, HSP90 on early apoptotic AGS cells (flow cytometry); format: cell-based, human; settings: doxorubicin 1.2 μM, cisplatin 100 μM 48 h vs Kadcyla 7 μg/ml 72 h
Experimental: The cells are collected and washed twice with PBS. The cells are then incubated for 30 min with primary antibody diluted in cold blocking buffer (2% fetal bovine serum in PBS), followed by washing and incubation with an […] monoclonal secondary antibody in blocking solution. Each sample was then analyzed using a FACScan Aria (BD Bioscience). Cell surface expression of HSP70, HSP90 and CRT is analyzed on non-permeabilized annexin V-positive/DAPI-negative cells.
The expression of ICD markers Hsp70, Hsp90 and CRT as well as NK cells ligands was measured by flow cytometry on these early apoptotic (AnnexinV^+/DAPI^−) cell populations using anti-calreticulin antibody (Abcam, USA), anti-HSP70 (R&D Systems, USA), anti-HSP90 (Enzo Life Sciences, USA). APC AffiniPure F(ab′)2 Fragment Goat Anti-Mouse (Jackson ImmunoResearch) was used as a secondary antibody.

[3] = test system: CD3-CD56+ cells (NK cells) of human PBMCs; experiment: In vitro activation of NK cells: RLI-15 treated PBMCs co-incubated with treated AGS tumor cells; format: cell-based
Experimental: As controls non-treated tumor cells were incubated with non-treated PBMC (KadNT in the ADC group) and non-treated tumor cells were incubated with RLI-15 treated PBMC (KadNT in the RLI+ADC group).

huHER2/EMT-6 tumors = experiment: Orthotopic huHER2/EMT-6 breast cancer model in vivo; design: species or system Balb/c AnN mice; settings: RLI-15 1 mg/kg s.c. days 15-18, Kadcyla 15 mg/kg i.v. days 0 and 7
Experimental: The study was initiated when the initial mean tumor volume among individual groups reached 140 mm^3. […] RLI-15 was administered in 4 sequential doses on study days 15-18 to amplify the numbers and activate immune cells. The antitumor efficacy was evaluated on the level of absolute tumor volume change. Safety has been monitored by body weight loss in individual animals. HER2 expression in individual tumors was analyzed using HercepTest™ (Dako) at the endpoint to map for potential heterogeneity of the model (staining was performed according to the instructions given by the manufacturer).

[4] = in vivo; cited from earlier work

Compound: N.N.[Cl][Pt][Cl] [cisplatin]
- induction of early apoptosis compared with Kadcyla (AGS tumor cell line [1]): equally
- mean fluorescent intensity (MFI) of ICD markers compared with Kadcyla (AGS tumor cell line [2]): stronger induction

Compound: COc1cccc2c1C(=O)c1c(O)c3c(c(O)c1C2=O)C[C@@](O)(C(=O)CO)C[C@@H]3O[C@H]1C[C@H](N)[C@H](O)[C@H](C)O1 [doxorubicin]
- induction of early apoptosis compared with Kadcyla (AGS tumor cell line [1]): even better suitable to induce early apoptosis
- mean fluorescent intensity (MFI) of ICD markers compared with Kadcyla (AGS tumor cell line [2]): about equal

Compound: RLI-15: receptor-linker-interleukin fusion protein of the human IL-15Rα sushi+ fragment with the human IL-15 (SEQ ID NO: 9)
- proliferation of CD3-CD56+ NK cells ([3]; PBMCs +/- 2.5 ng/ml RLI-15 72 h, AGS cells +/- Kadcyla 72 h, 10:1, 4 h): increase of total number of CD3−CD56^+ cells; also recorded: strong proliferation; also recorded: increase of total number of CD3^−CD56^+ cells
- % of IFNγ+ NK cells ([3]; PBMCs +/- 2.5 ng/ml RLI-15 72 h, AGS cells treated with Kadcyla 5-10 μg/ml 72 h, 10:1, 4 h): only moderate
- % of CD107a+ cells, KadNT group ([3]; RLI-15 treated PBMC with non-treated tumor cells): < 40%
- tumor volume at the end of the study (huHER2/EMT-6 tumors): intermediate tumor volume increase
- complete tumor eradication / complete and durable responses (huHER2/EMT-6 tumors; groups of 8 mice): 2 out of 8

Compound: Todelvy
- half-life [4]: 16 h
